US20250066864A1, “METHODS FOR IDENTIFYING ADAR1 INHIBITORS, AND COMPOSITIONS AND METHODS OF USE IN TREATING CANCER” (The Wistar Institute of Anatomy and Biology, priority 2021, published 2025)

Legend:
ADAR = biological target: T1, ADAR (Homo sapiens, UniProt P55265); settings: cited from earlier work
T1 sequence (P55265 1-1226): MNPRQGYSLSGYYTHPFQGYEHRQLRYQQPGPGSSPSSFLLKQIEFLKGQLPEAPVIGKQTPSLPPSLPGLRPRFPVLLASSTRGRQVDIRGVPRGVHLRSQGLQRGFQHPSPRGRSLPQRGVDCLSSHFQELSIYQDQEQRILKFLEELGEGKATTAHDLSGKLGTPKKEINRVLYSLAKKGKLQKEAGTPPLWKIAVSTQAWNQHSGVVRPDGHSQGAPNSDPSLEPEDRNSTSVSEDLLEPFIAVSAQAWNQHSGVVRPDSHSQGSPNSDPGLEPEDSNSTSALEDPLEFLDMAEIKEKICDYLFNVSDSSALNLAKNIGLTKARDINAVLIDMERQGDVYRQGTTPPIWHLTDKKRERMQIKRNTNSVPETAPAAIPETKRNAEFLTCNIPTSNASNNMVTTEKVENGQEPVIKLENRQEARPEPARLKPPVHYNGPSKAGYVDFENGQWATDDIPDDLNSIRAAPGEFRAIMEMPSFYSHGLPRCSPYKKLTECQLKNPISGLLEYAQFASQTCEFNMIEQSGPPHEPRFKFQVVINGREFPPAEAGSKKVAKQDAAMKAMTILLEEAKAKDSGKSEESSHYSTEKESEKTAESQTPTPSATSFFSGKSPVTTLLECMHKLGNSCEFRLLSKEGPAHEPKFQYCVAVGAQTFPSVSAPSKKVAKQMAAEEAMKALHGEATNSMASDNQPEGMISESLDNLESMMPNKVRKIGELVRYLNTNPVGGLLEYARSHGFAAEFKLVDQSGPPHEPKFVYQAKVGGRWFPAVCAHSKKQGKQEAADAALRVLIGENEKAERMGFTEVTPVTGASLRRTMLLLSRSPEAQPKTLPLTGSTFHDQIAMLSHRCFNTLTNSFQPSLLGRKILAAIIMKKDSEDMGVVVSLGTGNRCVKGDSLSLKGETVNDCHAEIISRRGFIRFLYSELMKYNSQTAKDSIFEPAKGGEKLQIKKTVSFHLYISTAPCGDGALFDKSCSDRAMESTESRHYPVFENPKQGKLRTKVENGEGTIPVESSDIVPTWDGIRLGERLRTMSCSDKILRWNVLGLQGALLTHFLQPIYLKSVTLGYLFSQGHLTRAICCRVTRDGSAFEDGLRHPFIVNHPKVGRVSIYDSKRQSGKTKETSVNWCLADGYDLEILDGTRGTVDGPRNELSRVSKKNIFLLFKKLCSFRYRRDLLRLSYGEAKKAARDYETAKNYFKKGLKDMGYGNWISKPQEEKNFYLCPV

HeLa-Nluc-edit cells = assay: Firefly luciferase (FFL) activity in HeLa-Nluc-edit reporter cells (viability/apoptosis); type: cell-based, human; settings: FIG. 24C
Experimental: A HeLa cell line (telomerase positive) permanently transformed with a dual luciferase reporter system (HeLa-Nluc-edit) as described by Fritzell, K. et al (Sensitive ADAR editing reporter in cancer cells enables high-throughput screening of small molecule libraries. Nucleic acids research 47, e22, doi:10.1093/nar/gky1228 (2019), which is incorporated herein by reference) were seeded at a density of 800 cells per well into 384 white plates (PerkinElmer, CulturPlate384, #6007689) in 20 μl of Opti-MEM without phenol red (Thermo Fisher Scientific #11058021) using a multidrop dispenser (Thermo Fisher Scientific) and incubated overnight at 37-C, 5% CO2. The cells were then treated with test compounds (Maybridge HitFinder Diversity Set library) for 72 h prior to luminescence signal detection. Briefly, 10 μl of Steadylite Plus FFL assay system reagents were added and firefly luminescence signal was measured within 10-20 min after the addition using a multiplate reader at 1 s integration time. Firefly luciferase activity was calculated for each well and results for each plate were normalized to a negative (0.1% DMSO) and positive (Doxorubicin 10 microM) control. […]
For the second screen, 10 μl of Steadylite Plus FFL assay system reagents were added and firefly luminescence signal was measured within 10-20 min after the addition using a multiplate reader at 1 s integration time. […]

SMILES	ADAR inhibition (ADAR)	apoptosis detected by reduction of the FFL activity (HeLa-Nluc-edit cells)
Nc1ncnc2c1nnn2[C@@H]1O[C@H](CO)[C@@H](O)[C@H]1O [8-azaadenosine]	not ADAR inhibitors	–
COc1cccc2c1C(=O)c1c(O)c3c(c(O)c1C2=O)C[C@@](O)(C(=O)CO)C[C@@H]3O[C@H]1C[C@H](N)[C@H](O)[C@H](C)O1 [Doxorubicin]	–	induces acute apoptosis
Nc1ncnc2c1nc(Cl)n2[C@@H]1O[C@H](CO)[C@@H](O)[C@H]1O [8-chloroadenosine]	not ADAR inhibitors	–
